Laboratory results published in ChEMBL document CHEMBL5465560, “Selectivity Literature for EUbOPEN Chemogenomic Library” (2024).
Blank lines part the entries; values can stand above or below the compound they belong to.

Assays:
[1] = target: Maternal embryonic leucine zipper kinase (Homo sapiens) (UniProt Q14680); assay: Selectivity interaction (KinomeScan (DiscoverX)) EUB0001049a MELK; details: at 1 µM
[2] = target: T1, Mitogen-activated protein kinase kinase kinase 3 (Homo sapiens) (UniProt Q99759); assay: Selectivity interaction (Kinase panel (Invitrogen)) EUB0000639a MAP3K3; details: at 200 nM
T1 sequence (whole entry): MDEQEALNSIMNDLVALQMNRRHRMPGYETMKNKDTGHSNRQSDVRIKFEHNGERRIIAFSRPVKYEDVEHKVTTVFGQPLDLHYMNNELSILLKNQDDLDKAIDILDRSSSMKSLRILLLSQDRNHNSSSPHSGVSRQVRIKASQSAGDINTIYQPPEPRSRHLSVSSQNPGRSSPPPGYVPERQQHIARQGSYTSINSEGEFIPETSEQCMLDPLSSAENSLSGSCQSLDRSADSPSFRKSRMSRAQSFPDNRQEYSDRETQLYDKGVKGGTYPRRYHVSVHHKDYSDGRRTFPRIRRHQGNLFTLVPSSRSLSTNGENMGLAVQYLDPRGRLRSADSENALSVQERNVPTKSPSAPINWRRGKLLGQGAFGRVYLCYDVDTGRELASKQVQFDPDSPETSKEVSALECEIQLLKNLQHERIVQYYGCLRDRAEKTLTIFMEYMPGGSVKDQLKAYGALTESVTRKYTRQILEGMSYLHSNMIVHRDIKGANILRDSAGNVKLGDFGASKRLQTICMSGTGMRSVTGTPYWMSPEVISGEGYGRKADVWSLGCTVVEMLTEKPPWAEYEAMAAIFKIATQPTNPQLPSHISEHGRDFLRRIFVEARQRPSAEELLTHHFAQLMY

[3] = target: Histone-lysine N-methyltransferase SETD2 (Homo sapiens) (UniProt Q9BYW2); assay: Selectivity interaction (Transferase panel (protein, RNA, and DNA methyltransferases. and EP300 (acetyltransferase))) EUB0000270b SETD2
[4] = target: T2, Non-receptor tyrosine-protein kinase TNK1 (Homo sapiens) (UniProt Q13470); assay: Selectivity interaction (Kinase panel (Carna Biosciences)) EUB0001542aTs TNK1; details: at 1 µM
T2 sequence (whole entry): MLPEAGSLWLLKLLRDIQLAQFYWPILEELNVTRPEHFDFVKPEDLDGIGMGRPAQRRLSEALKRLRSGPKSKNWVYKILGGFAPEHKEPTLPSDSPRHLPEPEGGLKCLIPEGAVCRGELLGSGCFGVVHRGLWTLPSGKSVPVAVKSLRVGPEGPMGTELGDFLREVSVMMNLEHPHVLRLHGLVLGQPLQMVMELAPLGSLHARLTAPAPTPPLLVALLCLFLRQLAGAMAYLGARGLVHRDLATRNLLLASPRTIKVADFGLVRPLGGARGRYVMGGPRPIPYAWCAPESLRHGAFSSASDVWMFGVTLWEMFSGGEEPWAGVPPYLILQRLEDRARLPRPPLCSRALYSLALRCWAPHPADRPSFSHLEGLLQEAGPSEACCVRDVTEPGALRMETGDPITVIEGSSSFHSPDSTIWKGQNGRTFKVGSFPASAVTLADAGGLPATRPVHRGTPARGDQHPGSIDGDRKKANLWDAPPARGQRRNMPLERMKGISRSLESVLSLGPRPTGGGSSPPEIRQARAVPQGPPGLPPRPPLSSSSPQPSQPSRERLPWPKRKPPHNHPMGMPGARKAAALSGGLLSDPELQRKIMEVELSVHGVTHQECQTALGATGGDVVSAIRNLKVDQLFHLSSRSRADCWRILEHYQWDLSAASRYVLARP

[5] = target: Tyrosine-protein kinase receptor UFO (Homo sapiens) (UniProt P30530); details: at 10 µM
[6] = target: Ribosomal protein S6 kinase alpha-5 (Homo sapiens) (UniProt O75582); assay: Selectivity interaction (KinomeScan (DiscoverX)) EUB0000229b RPS6KA5; details: at 10 µM
[7] = target: T3, Tyrosine-protein kinase Mer (Homo sapiens) (UniProt Q12866); assay: Selectivity interaction (KinomeScan (DiscoverX)) EUB0001619a MERTK; details: at 1 µM
T3 sequence (whole entry): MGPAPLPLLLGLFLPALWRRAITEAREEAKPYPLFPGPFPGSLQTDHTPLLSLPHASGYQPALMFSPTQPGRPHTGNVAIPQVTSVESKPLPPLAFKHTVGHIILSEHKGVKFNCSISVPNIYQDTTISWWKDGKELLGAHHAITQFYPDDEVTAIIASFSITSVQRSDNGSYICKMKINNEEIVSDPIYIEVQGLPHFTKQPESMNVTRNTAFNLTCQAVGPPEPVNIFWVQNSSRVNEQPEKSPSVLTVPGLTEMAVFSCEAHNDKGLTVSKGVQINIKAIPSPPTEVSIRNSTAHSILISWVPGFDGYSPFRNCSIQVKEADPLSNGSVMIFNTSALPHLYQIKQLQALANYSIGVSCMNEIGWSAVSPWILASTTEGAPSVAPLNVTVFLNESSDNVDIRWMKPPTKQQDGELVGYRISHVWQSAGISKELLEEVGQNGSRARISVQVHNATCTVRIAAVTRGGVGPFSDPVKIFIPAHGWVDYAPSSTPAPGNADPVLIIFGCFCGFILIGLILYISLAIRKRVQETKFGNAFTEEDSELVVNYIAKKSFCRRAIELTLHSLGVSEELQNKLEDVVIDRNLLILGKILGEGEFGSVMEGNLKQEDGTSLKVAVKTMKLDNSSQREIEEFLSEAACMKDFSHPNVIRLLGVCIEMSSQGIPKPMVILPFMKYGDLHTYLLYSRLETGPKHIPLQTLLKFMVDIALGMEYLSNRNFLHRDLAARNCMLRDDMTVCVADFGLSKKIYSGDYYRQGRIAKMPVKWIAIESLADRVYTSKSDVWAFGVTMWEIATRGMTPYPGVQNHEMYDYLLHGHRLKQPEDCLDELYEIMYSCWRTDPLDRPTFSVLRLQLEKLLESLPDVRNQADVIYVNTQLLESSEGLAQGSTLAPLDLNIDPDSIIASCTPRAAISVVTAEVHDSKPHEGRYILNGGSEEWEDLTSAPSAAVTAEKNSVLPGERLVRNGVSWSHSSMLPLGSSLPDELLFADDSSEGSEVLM

[8] = tested on: Tyrosine-protein kinase ABL1 (Homo sapiens), P00519 [T315I]; assay: Selectivity interaction (KinomeScan (DiscoverX)) EUB0000607a ABL1; details: at 10 µM

Sequence of Histone-lysine N-methyltransferase SETD2 (Homo sapiens) (Q9BYW2 whole entry): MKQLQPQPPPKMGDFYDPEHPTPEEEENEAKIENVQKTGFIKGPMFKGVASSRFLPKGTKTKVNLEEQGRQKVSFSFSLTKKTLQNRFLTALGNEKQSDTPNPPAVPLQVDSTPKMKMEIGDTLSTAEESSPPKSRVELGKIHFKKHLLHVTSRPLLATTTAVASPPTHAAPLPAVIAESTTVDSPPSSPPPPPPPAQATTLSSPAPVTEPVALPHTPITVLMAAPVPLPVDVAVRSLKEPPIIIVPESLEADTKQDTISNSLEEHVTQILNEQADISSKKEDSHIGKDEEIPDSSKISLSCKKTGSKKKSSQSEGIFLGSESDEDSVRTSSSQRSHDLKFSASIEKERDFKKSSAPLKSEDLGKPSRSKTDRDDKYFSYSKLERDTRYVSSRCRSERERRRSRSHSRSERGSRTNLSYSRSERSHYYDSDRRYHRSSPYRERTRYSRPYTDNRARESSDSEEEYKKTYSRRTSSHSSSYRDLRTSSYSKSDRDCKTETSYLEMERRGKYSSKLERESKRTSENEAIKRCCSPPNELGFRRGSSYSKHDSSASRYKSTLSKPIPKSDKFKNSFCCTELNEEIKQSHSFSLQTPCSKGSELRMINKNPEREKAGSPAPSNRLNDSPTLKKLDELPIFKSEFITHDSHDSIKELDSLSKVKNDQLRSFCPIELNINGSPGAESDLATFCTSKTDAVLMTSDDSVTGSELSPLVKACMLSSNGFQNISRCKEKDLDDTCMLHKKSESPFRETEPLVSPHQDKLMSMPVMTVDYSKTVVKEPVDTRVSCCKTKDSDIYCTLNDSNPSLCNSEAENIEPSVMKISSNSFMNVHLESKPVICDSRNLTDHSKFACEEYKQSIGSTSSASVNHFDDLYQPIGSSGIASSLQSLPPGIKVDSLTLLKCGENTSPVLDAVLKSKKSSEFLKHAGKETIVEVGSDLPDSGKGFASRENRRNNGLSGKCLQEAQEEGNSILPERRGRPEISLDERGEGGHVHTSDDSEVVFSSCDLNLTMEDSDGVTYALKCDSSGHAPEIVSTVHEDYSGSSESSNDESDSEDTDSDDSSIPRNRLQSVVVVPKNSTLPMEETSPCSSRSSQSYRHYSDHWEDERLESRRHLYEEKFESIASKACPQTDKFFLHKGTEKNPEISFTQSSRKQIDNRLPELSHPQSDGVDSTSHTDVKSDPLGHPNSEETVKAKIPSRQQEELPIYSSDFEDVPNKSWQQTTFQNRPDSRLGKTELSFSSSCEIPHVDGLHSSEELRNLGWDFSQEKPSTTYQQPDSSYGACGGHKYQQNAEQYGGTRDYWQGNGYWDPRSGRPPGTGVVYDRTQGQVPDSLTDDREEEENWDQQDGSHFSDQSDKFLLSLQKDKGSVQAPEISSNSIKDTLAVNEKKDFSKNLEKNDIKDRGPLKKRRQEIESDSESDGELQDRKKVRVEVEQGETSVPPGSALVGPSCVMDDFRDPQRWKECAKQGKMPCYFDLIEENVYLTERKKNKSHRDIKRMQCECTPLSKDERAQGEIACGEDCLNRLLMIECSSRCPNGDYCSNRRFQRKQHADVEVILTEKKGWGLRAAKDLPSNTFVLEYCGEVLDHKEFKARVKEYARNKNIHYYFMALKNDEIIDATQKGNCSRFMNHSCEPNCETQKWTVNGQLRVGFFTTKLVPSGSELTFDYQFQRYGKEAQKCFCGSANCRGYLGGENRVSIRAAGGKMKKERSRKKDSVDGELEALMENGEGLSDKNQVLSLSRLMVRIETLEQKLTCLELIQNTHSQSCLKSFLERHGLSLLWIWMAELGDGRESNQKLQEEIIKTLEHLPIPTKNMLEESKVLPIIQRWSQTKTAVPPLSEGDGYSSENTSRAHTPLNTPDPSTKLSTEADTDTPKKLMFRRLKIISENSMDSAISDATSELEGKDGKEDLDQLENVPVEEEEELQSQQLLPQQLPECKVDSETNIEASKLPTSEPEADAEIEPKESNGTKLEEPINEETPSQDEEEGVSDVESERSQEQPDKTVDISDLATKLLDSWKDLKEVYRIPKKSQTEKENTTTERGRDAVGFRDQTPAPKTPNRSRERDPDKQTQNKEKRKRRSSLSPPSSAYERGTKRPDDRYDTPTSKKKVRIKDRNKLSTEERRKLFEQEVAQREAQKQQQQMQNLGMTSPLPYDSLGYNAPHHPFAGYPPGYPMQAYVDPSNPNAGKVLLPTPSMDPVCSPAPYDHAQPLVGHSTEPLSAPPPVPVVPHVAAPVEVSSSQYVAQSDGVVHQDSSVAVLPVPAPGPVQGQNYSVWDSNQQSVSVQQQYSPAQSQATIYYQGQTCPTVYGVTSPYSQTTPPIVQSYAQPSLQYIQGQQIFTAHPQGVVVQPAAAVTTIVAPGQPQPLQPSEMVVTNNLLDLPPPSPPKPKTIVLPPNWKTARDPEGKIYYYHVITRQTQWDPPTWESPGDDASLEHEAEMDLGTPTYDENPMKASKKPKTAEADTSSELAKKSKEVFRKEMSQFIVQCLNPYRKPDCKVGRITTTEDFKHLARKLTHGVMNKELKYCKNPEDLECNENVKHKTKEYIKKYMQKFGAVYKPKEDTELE
Sequence of Maternal embryonic leucine zipper kinase (Homo sapiens) (Q14680 whole entry, looked up): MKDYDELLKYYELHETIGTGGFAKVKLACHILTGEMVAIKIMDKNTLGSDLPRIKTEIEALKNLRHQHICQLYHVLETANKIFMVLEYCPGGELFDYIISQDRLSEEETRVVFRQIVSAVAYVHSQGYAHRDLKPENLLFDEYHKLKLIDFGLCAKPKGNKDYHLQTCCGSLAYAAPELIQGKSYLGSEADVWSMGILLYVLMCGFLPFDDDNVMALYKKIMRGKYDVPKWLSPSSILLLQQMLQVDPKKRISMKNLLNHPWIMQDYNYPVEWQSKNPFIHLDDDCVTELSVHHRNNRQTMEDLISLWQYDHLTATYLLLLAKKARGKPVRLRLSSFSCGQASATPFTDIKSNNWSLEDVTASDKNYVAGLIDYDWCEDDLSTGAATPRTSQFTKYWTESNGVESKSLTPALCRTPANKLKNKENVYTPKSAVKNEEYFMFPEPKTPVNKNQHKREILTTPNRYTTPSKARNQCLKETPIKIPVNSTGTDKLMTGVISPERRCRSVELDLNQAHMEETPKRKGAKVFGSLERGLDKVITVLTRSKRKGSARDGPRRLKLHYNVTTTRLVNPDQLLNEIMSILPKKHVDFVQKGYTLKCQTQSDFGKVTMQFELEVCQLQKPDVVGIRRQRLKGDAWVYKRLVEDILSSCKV
Sequence of Tyrosine-protein kinase receptor UFO (Homo sapiens) (P30530 whole entry): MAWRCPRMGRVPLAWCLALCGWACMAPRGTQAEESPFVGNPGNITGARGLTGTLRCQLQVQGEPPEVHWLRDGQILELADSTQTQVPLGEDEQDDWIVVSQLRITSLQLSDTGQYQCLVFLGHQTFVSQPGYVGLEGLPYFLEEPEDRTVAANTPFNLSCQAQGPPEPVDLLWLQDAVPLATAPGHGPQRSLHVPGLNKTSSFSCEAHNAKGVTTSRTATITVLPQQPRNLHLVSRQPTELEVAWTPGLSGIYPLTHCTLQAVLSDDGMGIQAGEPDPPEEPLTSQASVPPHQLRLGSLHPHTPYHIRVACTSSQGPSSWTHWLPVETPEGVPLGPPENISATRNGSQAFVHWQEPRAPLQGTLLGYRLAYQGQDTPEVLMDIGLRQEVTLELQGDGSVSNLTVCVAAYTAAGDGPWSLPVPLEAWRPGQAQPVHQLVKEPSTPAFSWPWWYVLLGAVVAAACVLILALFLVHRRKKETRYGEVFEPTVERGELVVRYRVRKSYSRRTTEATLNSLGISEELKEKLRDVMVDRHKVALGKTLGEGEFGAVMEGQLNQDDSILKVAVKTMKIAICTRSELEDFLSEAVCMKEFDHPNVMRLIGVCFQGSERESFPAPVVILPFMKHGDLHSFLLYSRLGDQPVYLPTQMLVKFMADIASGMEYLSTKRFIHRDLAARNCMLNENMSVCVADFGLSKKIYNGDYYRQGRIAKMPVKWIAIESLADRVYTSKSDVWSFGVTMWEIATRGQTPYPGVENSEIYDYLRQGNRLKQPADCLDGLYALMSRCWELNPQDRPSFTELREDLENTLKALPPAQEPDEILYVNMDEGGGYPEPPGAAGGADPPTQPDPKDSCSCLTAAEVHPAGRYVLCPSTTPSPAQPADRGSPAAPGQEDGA
Sequence of Ribosomal protein S6 kinase alpha-5 (Homo sapiens) (O75582 whole entry, looked up): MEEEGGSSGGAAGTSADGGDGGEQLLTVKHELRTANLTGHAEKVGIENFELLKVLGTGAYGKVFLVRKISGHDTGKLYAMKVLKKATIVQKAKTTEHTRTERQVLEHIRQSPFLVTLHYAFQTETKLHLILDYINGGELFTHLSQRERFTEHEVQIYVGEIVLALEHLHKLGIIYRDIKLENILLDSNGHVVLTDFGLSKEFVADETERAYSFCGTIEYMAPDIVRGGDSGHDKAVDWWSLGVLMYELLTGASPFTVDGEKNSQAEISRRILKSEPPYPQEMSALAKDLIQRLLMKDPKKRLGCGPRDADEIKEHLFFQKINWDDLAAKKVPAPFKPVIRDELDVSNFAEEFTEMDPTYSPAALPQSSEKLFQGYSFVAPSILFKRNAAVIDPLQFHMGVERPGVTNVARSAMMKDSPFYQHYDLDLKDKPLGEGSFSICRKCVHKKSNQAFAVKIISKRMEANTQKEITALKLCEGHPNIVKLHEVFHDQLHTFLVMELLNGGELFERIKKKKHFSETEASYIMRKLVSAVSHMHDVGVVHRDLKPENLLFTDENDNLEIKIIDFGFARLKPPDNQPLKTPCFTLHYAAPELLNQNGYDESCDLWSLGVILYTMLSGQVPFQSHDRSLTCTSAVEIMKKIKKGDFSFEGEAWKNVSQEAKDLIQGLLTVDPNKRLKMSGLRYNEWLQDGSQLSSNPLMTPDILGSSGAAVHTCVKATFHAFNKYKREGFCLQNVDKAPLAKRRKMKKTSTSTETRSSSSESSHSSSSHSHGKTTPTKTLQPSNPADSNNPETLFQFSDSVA

SMILES: COc1cc(Nc2nc(C)cc(-c3cnn4nc(OC)ccc34)n2)cc(C(F)(F)F)c1
- % of control [1]: 97%

- % of inhibition [2]: -5.54%
SMILES: CC[C@@H]1[C@H](F)C(=O)N[C@@H]1COc1nccc2cc(C(N)=O)c(OC)cc12 [ZIMLOVISERTIB]

- % activity ([3]; at 1 µM): > 90%
- % activity ([3]; at 10 µM): > 80%
SMILES: Cc1cc(CN)cc(C)c1-c1ncn(C)c1-c1cncn1C

- % of inhibition [4]: 64%
SMILES: Cn1cc(Nc2nccc(N3CC4CCC(C3)N4C(=O)[C@@H]3CC3(F)F)n2)cn1

- % of control [5]: 100%
SMILES: CCN(CC)CCCCNc1ncc2cc(-c3cc(OC)cc(OC)c3)c(NC(=O)NC(C)(C)C)nc2n1

SMILES: COc1cc(N(C)c2ccnc3ccc(C(F)(F)F)cc23)cc(OC)c1OC
- % binding [6]: 87%

SMILES: N#Cc1cccc(-c2c[nH]c3ncnc(N4CCOCC4)c23)c1
- % of control [7]: 100%

SMILES: CNC(=O)Nc1ccc(-c2nc(N3CC4CCC(C3)O4)c3cnn(C4CCC5(CC4)OCCO5)c3n2)cc1
- % of control [8]: 80%
